Literature values in US20100297147A1, “COMPOSITIONS AND METHODS FOR MODULATING TLR14 ACTIVITY” (WYETH, priority 2006, published 2010).

Tested on: postnatal day 4 rat cerebellar granule neurons
Conditions: positive control, used at 10 uM

C[C@@H](N)[C@H]1CC[C@H](C(=O)Nc2ccncc2)CC1 [Y-27632]
neurite outgrowth in the presence of myelin (known activity of control compound): known to induce neurite outgrowth in the presence of myelin
